A short description of data set [1]: Pharmacokinetic study in rats after i.v. administration (HPLC-UV/VIS of plasma, non-compartmental analysis). Format: in vivo, male Sprague Dawley rats. The settings on record: i.v. 10 mg/kg. The procedure: Samples were analyzed with a Flexar HPLC system that consisted of a UV/VIS detector, a quaternary pump and a solvent manager with built-in degasser (PerkinElmer, Waltham, MA, USA). The separation was achieved using a Waters Symmetry C18 column (150 × 4.6 mm I.D.; 5 µm; Waters, Milford, MA, USA) protected by a Waters Symmetry C18 Guard Column (20 × 3.9 mm I.D.; 5 µm; Waters, Milford, MA, USA) at ambient temperature. The system’s pump delivered a constant flow of 1 mL/min. The volume of injection was 50 µL. BHMC and IS were eluted with a gradient method that gave an initial flow of 100% water for 1 min, changing linearly to 100% methanol in 11 min. Pure methanol was pumped continuously for 9 min. After this, 100% water was regained to stabilize the chromatographic system for 6 min. BHMC and IS were detected at a visible range of 380 nm. The analyses were repeated according to the gradient elution at every analytical cycle. The chromatograms were analyzed with Chromera Manager 2.1 (PerkinElmer, Waltham, MA, USA).
Plasma samples (200 µL) were pipetted into 1.5 mL microcentrifuge tubes. To each tube, deionized water (80 µL) was added and the tubes vortexed at medium speed for 20 s. Next, IS (62.5 µg/mL, 40 µL) was added and the mixtures vortexed again at medium speed for 20 s. A volume of 500 µL extraction reagent (95% ethyl acetate, 5% methanol) was loaded into each tube followed by a 60 s sonication and high speed vortexing for 60 s. The tubes were allowed to settle for 5 min followed by centrifugation at 13,500 g for 5 min at a temperature of 15 °C. After centrifugation the upper organic layer was carefully removed into another clean microcentrifuge tube. The organic layer was dried under a stream of nitrogen gas with a low heat setting. The dried extracted product was resuspended in 200 µL of a solution consisting of 10% methanol and 90% deionized water, sonicated for 60 s then vortexed at medium speed for 30 s. The tubes were left at room temperature in the dark for at least 10 min, followed by a repeat vortex mixing. The content was then filtered with 0.45 µm PTFE syringe filters (Titan, West Springfield, MA, USA) into a clean HPLC injection sample vial for HPLC assay.
Experiments was conducted on male Sprague Dawley rats (8–10 weeks old, 180–200 g) supplied by the Faculty of Veterinary Medicine, Universiti Putra Malaysia. All rats were housed at 23 ± 2 °C with 12 h of light/dark cycle with access to food and water ad libitum. They were acclimatized and habituated to the laboratory condition for at least one week prior to experimentation and were used only once throughout the experiments. All experimental protocols involving animals were performed in accordance with the current guidelines for the care of laboratory animals and the ethical guidelines for animal experimentation Animal Care and Use Committee (ACUC) as approved by the Animal Experimentation Ethics Committee of Universiti Putra Malaysia. Six rats were used. BHMC, solubilized in 5% ethanol (Thermo Fisher Scientific, Waltham, MA, USA), 5% Tween-20 (Sigma-Aldrich, St. Louis, MO, USA) and 90% deionized water, was injected intravenously to each rat at a dose of 10 mg/kg body weight. Blood samples (0.5 mL) were obtained from the tail vein at 5, 15, 30, 60, 120, 240, 480 and 720 min following BHMC administration. In order to prevent coagulation and enable plasma collection 1 µg of heparin sodium was added to each blood sample. Each sample was immediately centrifuged at 3,000 g for 10 min and the plasma was processed as described under sample preparation section. Pharmacokinetic parameters were estimated using non-compartmental pharmacokinetic analysis.

For data set [2], the system named is mouse model of inflammatory pain. Details: method as in PMID 12609665. The settings on record: cited from earlier work.
The test system of data set [3] is cellular synthesis of nitric oxide and several proinflammatory cytokines. Details: method as in PMID 19958764, PMID 21114991. The settings on record: through inhibition of signaling pathways incl. phosphorylation of p38 MAPK; cited from earlier work.
A further data set relates to lethal sepsis in mice. Details: method as in PMID 21114991. The settings on record: compared with curcumin; cited from earlier work.
On the set-up of data set [4]: method as in PMID 19110321, PMID 14997198, PMID 17400527, PMID 17999464. The settings on record: cited from earlier work.
The mark [5] stands for this setting: male, Sprague Dawley, rat, plasma, iv, n = 6, mean ± SD, non-compartmental analysis.

What is called AUC(0-inf) is total exposure, with the tail of the curve extrapolated. A high value points to high exposure. One may read the AUC(0-t) as exposure summed from dosing to a finite time, without extrapolation to infinity. Higher therefore signals more exposure. A word on the clearance: it is a measure of how efficiently the substance is removed, as volume per time. For orientation: Vd means a proportionality between amount in the body and measured concentration, not a real space. Regarding `COc1cc(C=C2CCCC(=Cc3ccc(O)c(OC)c3)C2=O)ccc1O` [BHMC, 2,6-bis-(4-hydroxy-3-methoxybenzylidene)-cyclohexanone], the “Time post-treatment up to which quantifiable in plasma of all rats” value in data set [1] (LOQ 0.02 µg/mL) was “at least 8 h”. In data set [1] (setting [5]), the AUC(0-inf) is 989 ng·h/mL and the AUC(0-t) is 937 ng·h/mL. Besides, the clearance in data set [1] (male, Sprague Dawley, rat, plasma, iv, n = 6, mean ± SD, non-compartmental analysis, read-out: Cl (clearance)) is 5.3 ± 0.7 mL/min. Besides, in data set [1] (male, Sprague Dawley, rat, plasma, iv, n = 6, mean ± SD, non-compartmental analysis, read-out: Cmax (maximum plasma concentration)), the Cmax amounted to 2910 ± 150 ng/mL. In addition, in data set [1] (male, Sprague Dawley, rat, plasma, iv, n = 6, mean ± SD, non-compartmental analysis, read-out: T1/2 (half-life)), the half-life came to 1.5 ± 0.124 h. In addition, the Vd in data set [1] (male, Sprague Dawley, rat, plasma, iv, n = 6, mean ± SD, non-compartmental analysis, read-out: Vd (volume of distribution)) was determined as 0.69 ± 0.038 L. Moreover, the Analgesic effect entry in data set [2] is “potential analgesic effect”. Further, the “Effect on cellular synthesis of nitric oxide and several proinflammatory cytokines” value in data set [3] was “significant inhibitory effects”. Also, in the data set on lethal sepsis in mice, the “Reduction of mortality following severe sepsis” value is listed as “superior to curcumin in reducing mortality”.

Regarding `COc1cc(C=CC(=O)CC(=O)C=Cc2ccc(O)c(OC)c2)ccc1O` [Curcumin, 1,7-bis(4-hydroxy-3-methoxyphenyl)-1,6-heptadiene-3,5-dione], the “Bioavailability via oral administration” value in data set [4] is “low bioavailability”.

These data come from paper PMC6268361, “Development and Validation of a Bioanalytical Method for Quantification of 2,6-Bis-(4-hydroxy-3-methoxybenzylidene)-cyclohexanone (BHMC) in Rat Plasma” (Molecules, 2012).
